One molecule from ChEMBL document CHEMBL4480432, “Expansion of a novel lead targeting M. tuberculosis DHFR as antitubercular agents” (Bioorg Med Chem, 2019) can be followed below.

Values after ≈ are worked out from the molar mass of the structure shown.

A short description of series [1]: Sub-acute toxicity in albino Wistar rat assessed as change in ALT level at 10 mg/kg, po administered for 28 days measured post last dose (reference value: 12.19 +/- 1.78 U/L). Particulars: in vivo, 672 h. In kind it is organism-based.
Series [2] in a line: Sub-acute toxicity in albino Wistar rat assessed as change in MDA level per mg protein at 1.25 mg/kg, po administered for 28 days measured post last dose (reference value: 0.91 +/- 0.1 nmol). Particulars: in vivo, 672 h. In kind it is organism-based.
For a further series, the target named is T1, Dihydrofolate reductase (Mycobacterium tuberculosis, UniProt P9WNX1).
T1 sequence (P9WNX1 whole entry): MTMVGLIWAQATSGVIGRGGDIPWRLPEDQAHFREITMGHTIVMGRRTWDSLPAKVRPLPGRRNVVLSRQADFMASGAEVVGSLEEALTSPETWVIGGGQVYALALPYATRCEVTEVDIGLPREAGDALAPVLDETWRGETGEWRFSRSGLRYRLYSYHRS
Nature of the series: Inhibition of Mycobacterium tuberculosis H37Rv DHFR expressed in Escherichia coli BL21(DE3) assessed as reduction in consumption of NADPH using DHF as substrate preincubated for 1 min followed by DHF addition and measured for 2 mins by spectrophotometric method.

The nature of series [3]: Sub-acute toxicity in albino Wistar rat assessed as change in AST level at 2.5 mg/kg, po administered for 28 days measured post last dose (reference value: 22.5 +/- 1.76 U/L). The series is classed as organism-based. To be noted: in vivo, 672 h.
Series [4] can be described thus: Sub-acute toxicity in albino Wistar rat assessed as change in colour at 1.25 to 10 mg/kg, po administered for 28 days. In kind it is organism-based. To be noted: in vivo, 672 h.
Series [5] in a line: Sub-acute toxicity in albino Wistar rat assessed as effect on behavioral changes at 1.25 to 10 mg/kg, po administered for 28 days. To be noted: in vivo, 672 h. The series is classed as organism-based.
Series [6] is described as follows: Sub-acute toxicity in albino Wistar rat assessed as effect on somatomotor system at 1.25 to 10 mg/kg, po administered for 28 days. The series is classed as organism-based. Particulars: in vivo, 672 h.
Series [7] can be described thus: Sub-acute toxicity in albino Wistar rat assessed as change in ALT level at 5 mg/kg, po administered for 28 days measured post last dose (reference value: 12.19 +/- 1.78 U/L). To be noted: in vivo, 672 h. In kind it is organism-based.
A short description of series [8]: Sub-acute toxicity in albino Wistar rat assessed as change in SOD level per mg protein at 2.5 mg/kg, po administered for 28 days measured post last dose (reference value: 4.85 +/- 0.34 U). In kind it is organism-based. To be noted: in vivo, 672 h.
The nature of series [9]: Sub-acute toxicity in albino Wistar rat assessed as change in ALT level at 1.25 mg/kg, po administered for 28 days measured post last dose (reference value: 12.19 +/- 1.78 U/L). In kind it is organism-based. Particulars: in vivo, 672 h.
The nature of series [10]: Sub-acute toxicity in albino Wistar rat assessed as adverse effect at 1.25 to 10 mg/kg, po administered for 28 days. In kind it is organism-based. To be noted: in vivo, 672 h.
A short description of series [11]: Sub-acute toxicity in albino Wistar rat assessed as change in SOD level per mg protein at 10 mg/kg, po administered for 28 days measured post last dose (reference value: 4.85 +/- 0.34 U). In kind it is organism-based. Particulars: in vivo, 672 h.
Series [12] relates to Mycobacterium tuberculosis. Nature of the series: microbe, parasite or virus in culture. To be noted: H37Rv ATCC 27294, 168 h.
Description: Antitubercular activity against Mycobacterium tuberculosis H37Rv ATCC 27294 after 7 days by microplate alamar blue method
Series [13] is described as follows: Sub-acute toxicity in albino Wistar rat assessed as change in autonomic nervous system at 1.25 to 10 mg/kg, po administered for 28 days. The series is classed as organism-based. Particulars: in vivo, 672 h.
Series [14] in a line: Sub-acute toxicity in albino Wistar rat assessed as change in MDA level per mg protein at 2.5 mg/kg, po administered for 28 days measured post last dose (reference value: 0.91 +/- 0.1 nmol). In kind it is organism-based. To be noted: in vivo, 672 h.
A short description of series [15]: Sub-acute toxicity in albino Wistar rat assessed as change in CAT level per mg protein at 10 mg/kg, po administered for 28 days measured post last dose (reference value: 28.45 +/- 2.1 U). In kind it is organism-based. To be noted: in vivo, 672 h.
Series [16] can be described thus: Sub-acute toxicity in albino Wistar rat assessed as change in AST level at 10 mg/kg, po administered for 28 days measured post last dose (reference value: 25 +/- 1.76 U/L). To be noted: in vivo, 672 h. In kind it is organism-based.
The nature of series [17]: Sub-acute toxicity in albino Wistar rat assessed as coma at 1.25 to 10 mg/kg, po administered for 28 days. In kind it is organism-based. To be noted: in vivo, 672 h.
A short description of series [18]: Sub-acute toxicity in albino Wistar rat assessed as change in MDA level per mg protein at 10 mg/kg, po administered for 28 days measured post last dose (reference value: 0.91 +/- 0.1 nmol). The series is classed as organism-based. To be noted: in vivo, 672 h.
The test system of series [19] is DHFR (human versus Mycobacterium tuberculosis H37Rv). The experiment in a line: Selectivity index, ratio of IC50 for human DHFR to IC50 for Mycobacterium tuberculosis H37Rv DHFR expressed in Escherichia coli BL21(DE3). In kind it is toxicity. To be noted: human and Mycobacterium tuberculosis H37Rv; read-out: Ratio IC50.
Series [20] in a line: Sub-acute toxicity in albino Wistar rat assessed as salivation at 1.25 to 10 mg/kg, po administered for 28 days. The series is classed as organism-based. To be noted: in vivo, 672 h.
Series [21] is described as follows: Sub-acute toxicity in albino Wistar rat assessed as change in SOD level per mg protein at 1.25 mg/kg, po administered for 28 days measured post last dose (reference value: 4.85 +/- 0.34 U). The series is classed as organism-based. Particulars: in vivo, 672 h.
Series [22] is described as follows: Sub-acute toxicity in albino Wistar rat assessed as change in hemoglobin level at 10 mg/kg, po administered for 28 days measured post last dose (reference value: 12.14 +/- 1.45 g%). The series is classed as organism-based. Particulars: in vivo, 672 h.
The nature of series [23]: Sub-acute toxicity in albino Wistar rat assessed as change in Urea level at 10 mg/kg, po administered for 28 days measured post last dose (reference value: 24.54 +/- 2.12 mg/dl). In kind it is organism-based. Particulars: in vivo, 672 h.

Usually IC50 stands for the midpoint of a concentration-inhibition curve. Take `CC(=O)c1c(C)n(Cc2ccccc2)c2ccc(OCc3cn(-c4ccc(Br)cc4)nn3)cc12`: the Activity in series [1] was 15.23 U/L; in [2], 0.95 nmol; in series [3] it was 24 U/L; in series [4] it was “Non-Toxic”; in series [5], “Non-Toxic”; in [6], “Non-Toxic”. In addition, the Activity in [7] was 14.32 U/L; in [8], 5.01 U; in series [9], 13.09 U/L; in series [10] it was “Non-Toxic”; in series [11], 5.56 U; in [13], “Non-Toxic”. Also, the Activity in series [14] is recorded as 1.05 nmol; in series [15], 32.45 U; in series [16], 26.98 U/L; in series [17], “Non-Toxic”; in series [18] it was 1.23 nmol; in series [20], “Non-Toxic”. Besides, the figures for the Activity in [21], in [22] and in series [23] were 4.95 U, 13.98 g% and 27.54 mg/dL, respectively. The IC50 on Dihydrofolate reductase worked out at 6.79 µM. In series [12], this molecule gave an MIC of 3.03 µM (≈ 1.56 µg/mL). Besides, the selectivity ratio in series [19] stood at 18.4.
